Experimental data published in patent publication US11414425B2 (priority 2018, dated 2022).
pKi: −log10 of the molar value. Read-outs that look alike come from different tables or passages of the source.

Tests used:
GABAA receptors (α5β2γ2) = molecular target: T1, GABAA receptors (α5β2γ2) (Homo sapiens, UniProt P18507+P31644); assay: Positive allosteric modulator activity: potentiation of EC20 GABA current in oocytes; assay type: cell-based; conditions: read-out: GABA α5 Functional Data (potentiation of EC20 GABA); @ 100 nM; ranges
T1 construct: expressed in transfected cells
Experimental: On day 1, 1 ng/32 nL of GABAA α5β2γ2 cDNA was injected into one oocyte. Test starts on day 2. The cDNA injected to the oocytes was a mix of alpha, beta and gamma, their ratio is 1:1:10 (by weight) and the total weight of the mixed 3 subunits to be injected in one oocyte was 1 ng in 32 nl volume. The injected oocytes can also be tested on day 3. In such case, the cDNA amount injected to the oocytes should be reduced by 20%.
1). 8 oocytes were placed in 8 chambers of OpusXpress and superfused with Modified Barth's Saline (MBS) at 3 mL/min. Glass electrodes back-filled with 3M KCl (0.5-3 megaohms) were used.
1). New oocytes were used to run new test.
3). […] Oocytes were washed with MBS for 5-10 min.
4). […] Itest was divided by IGABA to obtain potentiation (%).
Test Compounds at Multiple Doses • 1). Repeat the above steps 1), 2) and 3) in the control test. • 2). […] Divide Itest by IGABA to obtain potentiation (%). • 3). Discard all tested oocytes, new oocytes were used and the above steps 1) and 2) were repeated to test second concentration of the same compound. Each oocyte was used for only one concentration test for a single test compound. The steps were repeated for other test compounds.

α5β3γ2 GABAA receptors = α5β3γ2 GABAA receptors (Homo sapiens, UniProt P18507+P31644); assay: [3H]Ro15-1788 binding, membranes of Ltk cells stably expressing α5β3γ2 GABAA receptors
[1] = ranges, inhibition of [3H]Ro15-1788 binding

α5β3γ2 GABAA receptors, sequence (P31644 32-462): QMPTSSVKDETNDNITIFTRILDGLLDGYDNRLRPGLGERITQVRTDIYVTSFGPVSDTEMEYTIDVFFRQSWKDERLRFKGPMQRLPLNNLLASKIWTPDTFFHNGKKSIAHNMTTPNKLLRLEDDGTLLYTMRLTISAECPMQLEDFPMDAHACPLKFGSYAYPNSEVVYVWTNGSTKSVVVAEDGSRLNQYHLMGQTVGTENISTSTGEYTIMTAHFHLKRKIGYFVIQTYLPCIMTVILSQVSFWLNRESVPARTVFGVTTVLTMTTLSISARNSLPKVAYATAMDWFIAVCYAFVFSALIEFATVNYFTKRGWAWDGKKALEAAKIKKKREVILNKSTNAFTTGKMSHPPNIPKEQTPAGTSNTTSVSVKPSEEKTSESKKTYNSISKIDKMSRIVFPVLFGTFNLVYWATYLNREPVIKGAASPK
α5β3γ2 GABAA receptors, sequence (P28472 26-473 partner): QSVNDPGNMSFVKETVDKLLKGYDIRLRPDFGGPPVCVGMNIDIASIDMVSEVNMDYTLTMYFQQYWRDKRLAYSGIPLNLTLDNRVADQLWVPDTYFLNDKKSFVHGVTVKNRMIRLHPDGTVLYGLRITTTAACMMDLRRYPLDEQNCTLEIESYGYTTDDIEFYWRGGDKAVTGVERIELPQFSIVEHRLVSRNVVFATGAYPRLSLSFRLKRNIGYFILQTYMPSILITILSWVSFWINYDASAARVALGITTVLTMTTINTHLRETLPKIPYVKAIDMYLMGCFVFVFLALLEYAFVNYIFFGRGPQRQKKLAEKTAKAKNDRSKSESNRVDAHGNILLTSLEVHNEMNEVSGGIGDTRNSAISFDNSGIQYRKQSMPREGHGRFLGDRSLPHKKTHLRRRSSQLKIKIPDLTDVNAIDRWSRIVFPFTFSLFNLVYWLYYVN
α5β3γ2 GABAA receptors, sequence (P18507 40-475): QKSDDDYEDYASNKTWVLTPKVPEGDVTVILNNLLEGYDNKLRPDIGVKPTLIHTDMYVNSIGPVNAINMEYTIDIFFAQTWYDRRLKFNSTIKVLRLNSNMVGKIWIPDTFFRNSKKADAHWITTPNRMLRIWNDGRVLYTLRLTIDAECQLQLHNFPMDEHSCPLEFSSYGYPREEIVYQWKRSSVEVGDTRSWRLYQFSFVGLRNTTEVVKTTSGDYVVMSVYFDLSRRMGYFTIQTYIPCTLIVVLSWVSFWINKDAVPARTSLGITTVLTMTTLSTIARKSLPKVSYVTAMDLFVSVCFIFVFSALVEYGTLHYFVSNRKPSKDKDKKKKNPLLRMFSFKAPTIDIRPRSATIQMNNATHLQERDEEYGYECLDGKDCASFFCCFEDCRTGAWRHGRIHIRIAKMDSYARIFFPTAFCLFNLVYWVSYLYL
T1 sequence (P31644 32-462): as the sequence (P31644 32-462) above
T1 sequence (P47870 25-512, further chain): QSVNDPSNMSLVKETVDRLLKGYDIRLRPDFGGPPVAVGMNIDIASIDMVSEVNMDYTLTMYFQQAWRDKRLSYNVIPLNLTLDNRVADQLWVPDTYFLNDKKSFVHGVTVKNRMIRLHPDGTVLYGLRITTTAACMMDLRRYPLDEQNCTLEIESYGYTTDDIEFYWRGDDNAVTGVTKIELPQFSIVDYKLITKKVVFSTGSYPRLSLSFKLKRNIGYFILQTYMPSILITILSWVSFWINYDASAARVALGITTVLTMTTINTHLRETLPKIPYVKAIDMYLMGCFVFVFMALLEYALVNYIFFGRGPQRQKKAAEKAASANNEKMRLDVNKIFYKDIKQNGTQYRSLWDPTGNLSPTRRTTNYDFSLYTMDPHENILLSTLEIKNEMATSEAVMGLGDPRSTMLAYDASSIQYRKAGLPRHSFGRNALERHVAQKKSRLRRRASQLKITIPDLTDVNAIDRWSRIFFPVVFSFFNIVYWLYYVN
T1 sequence (P18507 40-475): as the sequence (P18507 40-475) above

SMILES	activation at 0.1 µM (GABAA receptors (α5β2γ2))	pKi (α5β3γ2 GABAA receptors; [1])	pKi (α5β3γ2 GABAA receptors)
COCc1nnc2n1Cc1c(C#Cc3ccc(OC)nc3)ncn1-c1ccc(OC)cc1-2 [Compound 703]	20 to 50%	> 7.00	–
COc1ccc2c(c1)-n1nncc1Cc1c(C#CCc3ccccc3OC(F)(F)F)ncn1-2 [Compound 420]	5 to 20%	–	–
Brc1ccc2c(c1)-n1nncc1Cc1c(C3=N[C@H](c4ccccc4)CO3)ncn1-2 [Compound 505]	20 to 50%	> 7.00	–
COCc1nnc2n1Cc1c(C#Cc3cnccn3)ncn1-c1ccc(Cl)cc1-2 [Compound 576]	20 to 50%	> 7.00	–
COCc1nnc2n1Cc1c(C#Cc3ccnn3C)ncn1-c1ccc(OC)cc1-2 [Compound 686]	> 50%	–	–
COCc1nnc2n1Cc1c(C#Cc3ncc(OC)cn3)ncn1-c1ccc(Cl)cc1-2 [Compound 574]	> 50%	> 7.00	–
C[C@]1(c2ccccc2)COC(c2ncn3c2Cc2cnnn2-c2cc(Cl)ccc2-3)=N1 [Compound 623]	5 to 20%	> 7.00	–
COc1ccc2c(c1)-n1nncc1Cc1c(C3=N[C@H](c4ccc(Cl)cc4)CO3)ncn1-2 [Compound 517]	20 to 50%	> 7.00	–
Clc1ccc2c(c1)-c1nnc(COCc3ccccc3)n1Cc1c(-c3ncco3)ncn1-2 [Compound 350]	> 50%	–	–
COc1ccc2c(c1)-n1nncc1Cc1c(C3=NCC(c4ncccc4OC)O3)ncn1-2 (stereo not drawn) [Compound 632]	5 to 20%	> 7.00	–
C#Cc1ncn2c1Cc1cnnn1-c1cc(Cl)ccc1-2 [Compound 356]	> 50%	–	–
COCc1nnc2n1Cc1c(C#Cc3ccc(OC)nn3)ncn1-c1ccc(OC)cc1-2 [Compound 712]	> 50%	> 7.00	–
COCc1nnc2n1Cc1c(C#Cc3ccn(C)n3)ncn1-c1ccc(OC)cc1-2 [Compound 687]	> 50%	–	–
COCc1nnc2n1Cc1c(C#Cc3cccc(C)n3)ncn1-c1ccc(Cl)cc1-2 [Compound 596]	> 50%	> 7.00	–
COCc1nnc2n1Cc1c(C#Cc3cc(C)cnn3)ncn1-c1ccc(Cl)cc1-2 [Compound 609]	20 to 50%	6.00 to 7.00	–
CC(C)c1noc(-c2ncn3c2Cc2c(Cc4ccc(F)cc4)nnn2-c2cc(OC(F)F)ccc2-3)n1 [Compound 494]	20 to 50%	> 7.00	–
COCc1nnc2n1Cc1c(C#Cc3cncc(C)c3)ncn1-c1ccc(Cl)cc1-2 [Compound 558]	5 to 20%	> 7.00	–
COCc1nnc2n1Cc1c(C#Cc3ccc(C)nc3)ncn1-c1ccc(OC)cc1-2 [Compound 561]	20 to 50%	> 7.00	–
COc1ccc2c(c1)-n1nncc1Cc1c(C#CCc3cccc(F)c3)ncn1-2 [Compound 419]	20 to 50%	–	–
COCc1nnc2n1Cc1c(C#CCc3cccc(Cl)c3)ncn1-c1ccc(Cl)cc1-2 [Compound 422]	20 to 50%	–	–
COCc1nnc2n1Cc1c(C#Cc3cnc(C)[nH]3)ncn1-c1ccc(OC)cc1-2 [Compound 685]	> 50%	–	–
CC(C)C#Cc1ccc2c(c1)-n1nncc1Cc1c(Br)ncn1-2 [Compound 454]	5 to 20%	–	–
COCc1nnc2n1Cc1c(C#CCc3cccc(F)c3)ncn1-c1ccc(Cl)cc1-2 [Compound 421]	20 to 50%	–	–
COCc1nnc2n1Cc1c(C#CCc3cccc(OC(F)(F)F)c3)ncn1-c1ccc(Cl)cc1-2 [Compound 423]	5 to 20%	–	–
COc1ccc2c(c1)-n1nncc1Cc1c(C#CCc3cccc(Cl)c3)ncn1-2 [Compound 417]	5 to 20%	–	–
CC(C)c1noc(-c2ncn3c2Cc2c(Cc4ccc(F)cc4)nnn2-c2cc(Cl)ccc2-3)n1 [Compound 489]	–	> 7.00	–
COc1ccc(C#Cc2ncn3c2Cc2cnnn2-c2cc(C(F)(F)F)ccc2-3)nc1 [Compound 554]	–	> 7.00	–

SMILES	activation at 0.1 µM (GABAA receptors (α5β2γ2))	pKi (α5β3γ2 GABAA receptors; [1])	pKi (α5β3γ2 GABAA receptors)
COCc1nnc2n1Cc1c(C#Cc3ccc(-n4cccc4)cc3)ncn1-c1ccc(OC)cc1-2 [Compound 713]	–	> 7.00	–
Cn1nccc1C#Cc1ncn2c1Cc1cnnn1-c1cc(Cl)ccc1-2 [Compound 660]	–	> 7.00	–
COCc1nnc2n1Cc1c(C#Cc3cccc(OC)n3)ncn1-c1ccc(Cl)cc1-2 [Compound 611]	–	> 7.00	–
COCc1nnc2n1Cc1c(C#Cc3cccnc3OC)ncn1-c1ccc(Cl)cc1-2 [Compound 614]	–	> 7.00	–
C#Cc1ncn2c1Cn1c(COc3ccccc3F)nnc1-c1cc(Cl)ccc1-2 [Compound 353, 15-chloro-5-ethynyl-9-(2-fluorophenoxymethyl)-2,4,8,10,11-pentaazatetracyclo[11.4.0.0^2,6.0^8,12]heptadeca-1(17),3,5,9,11,13,15-heptaene]	> 50%	–	–
CCOc1ccc(C#Cc2ncn3c2Cn2c(COC)nnc2-c2cc(Cl)ccc2-3)cn1 [Compound 709]	–	6.00 to 7.00	–
COc1ncc(C#Cc2ncn3c2Cc2cnnn2-c2cc(Cl)ccc2-3)s1 [Compound 622]	–	> 7.00	–
COCc1nnn2c1Cc1c(C#Cc3cnc(OC)s3)ncn1-c1ccc(OC)cc1-2 [Compound 647]	–	–	> 7.00
COCc1nnc2n1Cc1c(C#Cc3ncc(C)s3)ncn1-c1ccc(OC)cc1-2 [Compound 601]	–	> 7.00	–
COCc1nnc2n1Cc1c(C#Cc3cnc(OC)cn3)ncn1-c1ccc(Cl)cc1-2 [Compound 578]	–	> 7.00	–
COCc1nnc2n1Cc1c(C#Cc3ccc(OC(F)(F)F)cn3)ncn1-c1ccc(OC)cc1-2 [Compound 613]	–	> 7.00	–
COCc1nnc2n1Cc1c(C#Cc3c[nH]nc3OC)ncn1-c1ccc(OC)cc1-2 [Compound 657]	–	> 7.00	–
CC(C)c1noc(-c2ncn3c2Cc2c(Cc4cccc(F)c4)nnn2-c2cc(C(F)(F)F)ccc2-3)n1 [Compound 487]	–	6.00 to 7.00	–
Fc1ccc(-n2cc(-c3ncn4c3Cc3cnnn3-c3cc(Cl)ccc3-4)nn2)cc1 [Compound 525]	–	> 7.00	–
COCc1nnn2c1Cc1c(C#Cc3ccn(C)n3)ncn1-c1ccc(Cl)cc1-2 [Compound 643]	–	> 7.00	–
COc1ccc2c(c1)-n1nncc1Cc1c(C3=NC[C@@H](c4cccc(F)c4)O3)ncn1-2 [Compound 692]	–	–	> 7.00
Cn1ccc(C#Cc2ncn3c2Cc2cnnn2-c2cc(Cl)ccc2-3)n1 [Compound 661]	–	–	> 7.00
Clc1ccc2c(c1)-n1nncc1Cc1c(COc3ccccc3)ncn1-2 [Compound 548]	–	–	> 7.00
COCc1nnc2n1Cc1c(C#Cc3ccc4ncccc4c3)ncn1-c1ccc(OC)cc1-2 [Compound 714]	–	> 7.00	–
COCc1nnc2n1Cc1c(C#Cc3ccc(C(F)(F)F)cn3)ncn1-c1ccc(OC)cc1-2 [Compound 587]	–	> 7.00	–
COc1ccc(C#Cc2ncn3c2Cc2cnnn2-c2cc(Cl)ccc2-3)cn1 [Compound 533]	–	> 7.00	–
COc1ccc2c(c1)-n1nncc1Cc1c(C3=NCC(c4cccnc4)O3)ncn1-2 (racemic) [Compound 691]	–	–	> 7.00
COCc1nnc2n1Cc1c(C#Cc3ccc(C)nc3)ncn1-c1ccc(Cl)cc1-2 [Compound 556]	–	6.00 to 7.00	–
COc1ccc2c(c1)-n1nncc1Cc1c(C#Cc3cnc(OC)s3)ncn1-2 [Compound 621]	–	> 7.00	–
COCc1nnc2n1Cc1c(C#Cc3cnc(C)nc3)ncn1-c1ccc(Cl)cc1-2 [Compound 573]	–	6.00 to 7.00	–
Clc1ccc2c(c1)-c1nnc(Oc3ccccc3)n1Cc1c(C3=N[C@H](c4ccccc4)CO3)ncn1-2 [Compound 541]	–	> 7.00	–
